“Also recorded” adds a separate entry of the source. Each block holds one substance with its values, some of them ahead of it. Non-standard residues stand in square brackets, D forms with d. No end group written: not given here. Hyp = O=C(O)[C@@H]1C[C@@H](O)CN1
Columns and labels:
Ara h 2-specific IgE [1] = assay: Biotin/streptavidin ELISA of serum IgE binding to peptides; parameters: species or system human; details: for IgE binding by ELISA, purified peptides: serum pool at 10 IU/ml, 95-97% pure peptides at 5 nM, Bt-anti-HuIgE 1:500 (FIG. 5B, 6B); for IgE binding by ELISA, Biotide peptides: serum pool at 10 IU/ml Ara h 2-sIgE, 20-30% pure Biotide peptides at 1 nM, Bt-anti-HuIgE 1:3,000 (FIG. 5A, 6A)
From the text: (§1) To produce the serum pool, 10 individual sera were pooled with the concentration of Ara h 2-sIgE normalized so that no one serum was predominant (Table 2). Seven sera were studied in detail, 3 of these were included in the serum pool and 4 independent of the serum pool (Table 2). The Colorado Multiple Institutional Review Board (COMIRB) approved this study. All adult patients and the parents or guardians of minors gave written informed consent. Minors who were >6 years of age, signed an assent.
(§2) Peptides for ELISAs were synthesized with an N-terminal linker arm (Ttds; JPT Peptides, Berlin) followed by biotin at the N terminus. Prior to generating microarrays with high fidelity sequences, we performed screening assays using the Biotide approach (JPT Peptides, Berlin) in which multiple related peptides are synthesized in a cost-effective manner at approximately 20% purity. For validation, selected peptides were also synthesized by standard methods and purified (95-97% pure) by HPLC (JPT Laboratories, Berlin). For all peptides of epitope 3 and the related mimotope studied here, trans-4-hydroxyproline (h) was substituted for second proline in the DPY_P motif as this substitution may enhance binding of IgE. Peptides for microarray assays were synthesized with the Ttds linker arm on the N terminus and printed onto microscope slides treated with a proprietary 3-dimensional surface by JPT Peptides (Berlin).
Streptavidin (InVitrogen) (5 μg/ml) was bound to micro titer plates by overnight incubation in PBS, the plates were washed once with PBST (0.05% Tween 20) and 50 μL of peptides were added at a final concentration of 1-5 nM in PBST for 1 hour at room temperature. Unoccupied streptavidin sites were then saturated with 400 μM biotin in PBS and the samples were probed with diluted sera from allergic subjects diluted in PBST with 0.1% albumin to contain 10 IU/ml of Ara h 2-sIgE. After overnight incubation at 4° C., slides were washed, incubated with HRP-labeled murine monoclonal anti-human IgE (clone HP6029; Southern Biotech 1:500-1:3,000), washed again and developed with TMB (ThermoFisher Scientific). Background binding of serum without peptide (OD=approximately 0.100) was subtracted. We also examined the background of peptide without serum and this was similar to, or lower than, the background of serum without peptide.
(§3) GraphPad Prism (versions 8.4-9.5 for the Macintosh (GraphPad; La Jolla, CA)) was used to generate graphs and for statistical analysis. The following analyses were performed: 1) for dose response curves, multiple unpaired t test with Welch correction for unequal variances; 2) to combine data from multiple assays, the data were normalized within each assay based on IgE binding to the native sequence (epitope 3) or the original sequence (mimotope A147) and expressed binding as percent of binding and 3) to compare differences in IgE binding for a specific alanine substitution, one way ANOVA followed by Dunnet's multiple comparison test.

Ara h 2-specific IgE [2] = assay: Peptide microarray of serum IgE binding (dose response and alanine scans); parameters: species or system human
From the text: as §1, §2
Each microscope slide contained 21 microarrays and within each microarray, peptides were printed in triplicate. 10-15 spots were not printed with any peptide as control spots. Sera were diluted to contain the same concentrations of Ara h 2-sIgE (usually 10 IU/ml) or at various concentrations for dose response assays and assayed in duplicate arrays on 3-4 separate days as previously described except for use of biotinylated anti-IgE (clone HP6029 from Southern Biotech at 1:1,000). For each microarray assay, the density units of three observations within each microarray were averaged and then the data from duplicate microarrays were averaged. To combine data from multiple independent assays, the signal within each assay was normalized to that of a wild-type peptide and the signal was expressed as a percent of that with the original peptide. Background binding of serum without peptide (300-500 AU) was subtracted. We also examined the background of peptide without serum. Only for the mimotope, this background was higher than the background of serum without peptide and these values (5,000-10,000 AU), which were quite high, were subtracted from the signal of serum with peptide (which bound IgE very strongly (20,000-30,000 AU), instead of subtracting the background of serum without peptide.
Linear sequences of epitope 3 and the mimotope as well as derivative peptides in which each amino acid was sequentially changed to alanine were studied.
as §3

Substance: LLDPYAPRAWTK [A147]
- IgE binding by ELISA, Biotide peptides (Ara h 2-specific IgE [1]): did not bind IgE well

Substance: LLDPYAhRAWTK (LLDPYA[Hyp]RAWTK) [mimotope with P->h]
- IgE binding by ELISA, Biotide peptides (Ara h 2-specific IgE [1]): bound more IgE at all doses than did the original mimotope
- IgE binding by ELISA, Biotide peptides (Ara h 2-specific IgE [1]; listed as SEQ ID NO:2): binding was dramatically enhanced
- IgE binding by ELISA, purified peptides (Ara h 2-specific IgE [1]): No significant differences were seen
- IgE binding by ELISA, purified peptides (Ara h 2-specific IgE [1]; listed as SEQ ID NO:2): bound similar amounts of IgE as did Epitope 3-Core
- IgE binding by ELISA, purified peptides (Ara h 2-specific IgE [1]; listed as substituted mimotope): bound amounts of IgE similar to that of the Epitope 3-Core peptide
- Microarray signal of serum with peptide (Ara h 2-specific IgE [2]; before background subtraction): 20,000-30,000 AU
- IgE binding in microarray format at Ara h 2 sIgE of 0.3 kU/L (Ara h 2-specific IgE [2]; serum pool at 0.3 kU/L Ara h 2 sIgE, p<0.05 (FIG. 7)): bound significantly more IgE than did Epitope 3-Core
- IgE binding in microarray format, dose response of serum (Ara h 2-specific IgE [2]; serum pool at various doses, P substituted with h in all peptides (FIG. 7)): tended to bind more IgE at lower doses of serum

Substance: DEDSYERDPYShSQDP (DEDSYERDPYS[Hyp]SQDP) [Epitope 3-Core]
- IgE binding by ELISA, Biotide peptides (Ara h 2-specific IgE [1]): bind IgE almost as well as the 20mer sequence
- IgE binding by ELISA, purified peptides (Ara h 2-specific IgE [1]): bound similar amounts of IgE; also recorded: No significant differences were seen; also recorded: strong binding

The next lines start with results.

- IgE binding by ELISA, purified peptides (Ara h 2-specific IgE [1]): bound similar amounts of IgE
Substance: ERDPYShSQDPYShSPYDRR (ERDPYS[Hyp]SQDPYS[Hyp]SPYDRR) [20mer version of epitope 3]

- IgE binding after alanine substitution, density units normalized to WT sequence (Ara h 2-specific IgE [2]; alanine scan of Epitope 3-Core, serum pool at 10 IU/ml Ara h 2-sIgE, percent of WT signal (FIG. 1B)): 9±6%
Substance: Y10: Epitope 3-Core (DEDSYERDPYShSQDP) with amino acid Y10 changed to alanine (DEDSYERDPAS[Hyp]SQDP)
- Relevance of the residue for IgE binding, alanine scan of Epitope 3-Core with individual sera (Ara h 2-specific IgE [2]; 7 individual sera (FIG. 2B)): relevant for most sera
